Source: ChEMBL document CHEMBL5584351
The source made the active and inactive calls. No cut-off for these calls is given here.

What was measured:
[1] = target: T1, Oxysterols receptor LXR-alpha (Homo sapiens, UniProt Q13133); assay: Agonist activity at GST tagged LXRalpha (unknown origin) using SRC1 as coactivator peptide incubated for 1 hr by coactivator recruitment based TR-FRET assay
T1 sequence (Q13133 whole entry): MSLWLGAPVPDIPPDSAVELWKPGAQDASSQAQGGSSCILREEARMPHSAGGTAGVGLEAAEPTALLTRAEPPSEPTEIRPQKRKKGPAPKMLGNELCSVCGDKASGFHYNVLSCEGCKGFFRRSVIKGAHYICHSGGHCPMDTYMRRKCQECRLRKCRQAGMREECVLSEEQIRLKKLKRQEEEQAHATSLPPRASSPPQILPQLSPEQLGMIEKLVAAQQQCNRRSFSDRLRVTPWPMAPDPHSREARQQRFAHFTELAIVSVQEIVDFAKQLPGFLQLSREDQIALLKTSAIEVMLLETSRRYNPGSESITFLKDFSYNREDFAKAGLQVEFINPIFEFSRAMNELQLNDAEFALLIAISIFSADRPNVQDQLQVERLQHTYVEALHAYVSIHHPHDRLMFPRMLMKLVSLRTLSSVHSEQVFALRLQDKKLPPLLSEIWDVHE

[2] = target: T2, Oxysterols receptor LXR-beta (Homo sapiens, UniProt P55055); assay: Agonist activity at GST tagged LXRbeta (unknown origin) using SRC1 as coactivator peptide incubated for 1 hr by coactivator recruitment based TR-FRET assay
T2 sequence (P55055 whole entry): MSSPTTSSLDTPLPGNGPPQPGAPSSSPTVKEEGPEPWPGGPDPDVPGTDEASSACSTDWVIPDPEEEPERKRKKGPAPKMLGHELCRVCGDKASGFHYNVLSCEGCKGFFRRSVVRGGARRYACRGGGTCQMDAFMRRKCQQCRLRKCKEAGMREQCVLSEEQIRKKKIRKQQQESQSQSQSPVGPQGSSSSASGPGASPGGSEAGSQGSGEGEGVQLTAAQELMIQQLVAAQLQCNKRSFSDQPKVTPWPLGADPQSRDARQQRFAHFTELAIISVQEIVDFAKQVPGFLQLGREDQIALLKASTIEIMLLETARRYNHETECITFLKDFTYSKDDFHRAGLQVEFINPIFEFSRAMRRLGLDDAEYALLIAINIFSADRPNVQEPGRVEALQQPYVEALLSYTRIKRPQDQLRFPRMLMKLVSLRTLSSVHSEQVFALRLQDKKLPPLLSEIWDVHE

[3] = target: Phospholipid-transporting ATPase ABCA1 (Homo sapiens, UniProt O95477); assay: Activation of ABCA1 (unknown origin)
[4] = Toxicity in wild type C57BL/6 mouse assessed as change in ABCA1 protein expression in brain at 10 mg/kg,po administrated for 7 days by immunoblotting analysis; assay type: organism-based; conditions: in vivo, 168 h, time 7 day
HepG2 = assay: Agonist activity at LXR in human HepG2 cells assessed as upregulation of SREBF1 mRNA expression at 10 uM incubated for 24 hrs by qPCR analysis; assay type: cell-based; conditions: filed as agonist
[5] = target: Phospholipid-transporting ATPase ABCA1 (Mus musculus) (UniProt P41233); assay: Activation of ABCA1 in mouse J774.2 cells assessed as increase in fluorescent-tagged cholesterol efflux at 1 uM incubated for 24 hrs by BODIPY based fluorescence analysis; assay type: cell-based; conditions: filed as activator
[6] = target: T3, Bile acid receptor (Homo sapiens) (UniProt Q96RI1); assay: Agonist activity at FXR LBD (unknown origin) transfected in HEK293T cells by measuring maximal efficacy incubated for 16 hrs by Gal4-reporter gene based luciferase assay; assay type: cell-based
T3 sequence (whole entry): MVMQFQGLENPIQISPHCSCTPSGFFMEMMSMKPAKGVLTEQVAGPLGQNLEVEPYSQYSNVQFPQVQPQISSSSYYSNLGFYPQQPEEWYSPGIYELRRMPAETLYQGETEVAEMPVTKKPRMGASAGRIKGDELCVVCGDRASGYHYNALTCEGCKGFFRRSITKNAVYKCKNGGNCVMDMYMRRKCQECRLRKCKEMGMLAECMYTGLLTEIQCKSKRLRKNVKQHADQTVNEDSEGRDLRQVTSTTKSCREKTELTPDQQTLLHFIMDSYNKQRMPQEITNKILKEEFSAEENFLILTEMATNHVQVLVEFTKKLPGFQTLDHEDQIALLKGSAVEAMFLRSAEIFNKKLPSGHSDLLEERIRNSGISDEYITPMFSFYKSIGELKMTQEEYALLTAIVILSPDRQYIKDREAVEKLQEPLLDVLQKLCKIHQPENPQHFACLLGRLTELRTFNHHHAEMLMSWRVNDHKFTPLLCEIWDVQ

Chain of Phospholipid-transporting ATPase ABCA1 (Mus musculus) (P41233 whole entry, the tested form may be a part): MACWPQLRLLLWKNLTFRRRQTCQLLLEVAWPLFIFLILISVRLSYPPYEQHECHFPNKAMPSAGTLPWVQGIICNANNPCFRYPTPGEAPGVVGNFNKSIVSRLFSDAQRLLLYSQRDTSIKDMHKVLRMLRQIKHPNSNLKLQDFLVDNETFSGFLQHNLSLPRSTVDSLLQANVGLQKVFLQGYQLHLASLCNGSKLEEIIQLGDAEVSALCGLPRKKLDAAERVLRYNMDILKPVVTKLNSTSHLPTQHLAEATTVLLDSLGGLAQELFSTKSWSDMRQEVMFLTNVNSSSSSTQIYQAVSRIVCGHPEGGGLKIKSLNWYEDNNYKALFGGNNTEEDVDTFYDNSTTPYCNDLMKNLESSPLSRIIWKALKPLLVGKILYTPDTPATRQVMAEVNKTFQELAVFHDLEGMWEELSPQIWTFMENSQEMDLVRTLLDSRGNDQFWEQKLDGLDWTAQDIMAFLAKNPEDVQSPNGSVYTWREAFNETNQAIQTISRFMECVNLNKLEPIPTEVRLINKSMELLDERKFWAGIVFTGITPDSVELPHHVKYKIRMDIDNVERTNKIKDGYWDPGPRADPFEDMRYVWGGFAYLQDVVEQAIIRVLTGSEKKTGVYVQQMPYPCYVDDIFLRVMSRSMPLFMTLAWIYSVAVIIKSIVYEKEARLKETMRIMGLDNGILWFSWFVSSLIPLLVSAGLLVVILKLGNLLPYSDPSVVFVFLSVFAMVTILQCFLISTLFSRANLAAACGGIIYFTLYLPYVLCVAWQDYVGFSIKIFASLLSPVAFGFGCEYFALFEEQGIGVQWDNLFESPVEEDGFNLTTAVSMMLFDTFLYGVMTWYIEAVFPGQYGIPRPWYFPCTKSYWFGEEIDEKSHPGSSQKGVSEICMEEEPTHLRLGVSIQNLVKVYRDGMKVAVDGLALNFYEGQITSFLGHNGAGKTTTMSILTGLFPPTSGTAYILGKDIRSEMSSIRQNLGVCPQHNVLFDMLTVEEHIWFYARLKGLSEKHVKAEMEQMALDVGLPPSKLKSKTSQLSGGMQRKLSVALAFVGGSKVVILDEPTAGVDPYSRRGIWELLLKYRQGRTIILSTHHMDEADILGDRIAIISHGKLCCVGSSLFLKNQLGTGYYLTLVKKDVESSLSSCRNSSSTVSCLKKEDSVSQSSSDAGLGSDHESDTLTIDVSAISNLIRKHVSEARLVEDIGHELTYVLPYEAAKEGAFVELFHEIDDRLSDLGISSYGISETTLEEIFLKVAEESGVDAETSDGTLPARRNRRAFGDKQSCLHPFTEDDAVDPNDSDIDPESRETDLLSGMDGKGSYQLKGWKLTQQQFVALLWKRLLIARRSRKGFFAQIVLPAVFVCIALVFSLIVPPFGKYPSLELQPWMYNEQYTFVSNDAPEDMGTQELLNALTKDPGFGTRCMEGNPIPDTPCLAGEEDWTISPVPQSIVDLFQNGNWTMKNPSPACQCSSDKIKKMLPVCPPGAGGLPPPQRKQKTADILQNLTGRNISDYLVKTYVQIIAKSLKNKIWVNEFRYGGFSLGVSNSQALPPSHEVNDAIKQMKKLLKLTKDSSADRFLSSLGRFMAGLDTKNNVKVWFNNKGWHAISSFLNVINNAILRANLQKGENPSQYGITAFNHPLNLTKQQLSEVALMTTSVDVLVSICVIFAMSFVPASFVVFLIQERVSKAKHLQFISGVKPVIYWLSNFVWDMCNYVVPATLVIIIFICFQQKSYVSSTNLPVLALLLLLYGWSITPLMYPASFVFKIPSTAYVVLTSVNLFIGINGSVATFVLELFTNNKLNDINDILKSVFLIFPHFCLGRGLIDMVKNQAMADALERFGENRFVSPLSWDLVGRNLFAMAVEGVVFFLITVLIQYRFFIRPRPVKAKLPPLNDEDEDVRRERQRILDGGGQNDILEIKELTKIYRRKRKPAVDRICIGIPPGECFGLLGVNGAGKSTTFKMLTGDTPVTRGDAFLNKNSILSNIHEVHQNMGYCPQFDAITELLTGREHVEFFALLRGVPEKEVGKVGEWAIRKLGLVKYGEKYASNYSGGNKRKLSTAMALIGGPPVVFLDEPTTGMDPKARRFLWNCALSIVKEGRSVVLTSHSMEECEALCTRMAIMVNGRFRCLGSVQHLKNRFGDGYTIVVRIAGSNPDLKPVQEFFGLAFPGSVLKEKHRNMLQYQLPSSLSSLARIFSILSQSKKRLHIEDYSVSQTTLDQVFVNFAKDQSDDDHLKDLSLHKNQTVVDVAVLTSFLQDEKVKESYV
Chain of Phospholipid-transporting ATPase ABCA1 (O95477 whole entry): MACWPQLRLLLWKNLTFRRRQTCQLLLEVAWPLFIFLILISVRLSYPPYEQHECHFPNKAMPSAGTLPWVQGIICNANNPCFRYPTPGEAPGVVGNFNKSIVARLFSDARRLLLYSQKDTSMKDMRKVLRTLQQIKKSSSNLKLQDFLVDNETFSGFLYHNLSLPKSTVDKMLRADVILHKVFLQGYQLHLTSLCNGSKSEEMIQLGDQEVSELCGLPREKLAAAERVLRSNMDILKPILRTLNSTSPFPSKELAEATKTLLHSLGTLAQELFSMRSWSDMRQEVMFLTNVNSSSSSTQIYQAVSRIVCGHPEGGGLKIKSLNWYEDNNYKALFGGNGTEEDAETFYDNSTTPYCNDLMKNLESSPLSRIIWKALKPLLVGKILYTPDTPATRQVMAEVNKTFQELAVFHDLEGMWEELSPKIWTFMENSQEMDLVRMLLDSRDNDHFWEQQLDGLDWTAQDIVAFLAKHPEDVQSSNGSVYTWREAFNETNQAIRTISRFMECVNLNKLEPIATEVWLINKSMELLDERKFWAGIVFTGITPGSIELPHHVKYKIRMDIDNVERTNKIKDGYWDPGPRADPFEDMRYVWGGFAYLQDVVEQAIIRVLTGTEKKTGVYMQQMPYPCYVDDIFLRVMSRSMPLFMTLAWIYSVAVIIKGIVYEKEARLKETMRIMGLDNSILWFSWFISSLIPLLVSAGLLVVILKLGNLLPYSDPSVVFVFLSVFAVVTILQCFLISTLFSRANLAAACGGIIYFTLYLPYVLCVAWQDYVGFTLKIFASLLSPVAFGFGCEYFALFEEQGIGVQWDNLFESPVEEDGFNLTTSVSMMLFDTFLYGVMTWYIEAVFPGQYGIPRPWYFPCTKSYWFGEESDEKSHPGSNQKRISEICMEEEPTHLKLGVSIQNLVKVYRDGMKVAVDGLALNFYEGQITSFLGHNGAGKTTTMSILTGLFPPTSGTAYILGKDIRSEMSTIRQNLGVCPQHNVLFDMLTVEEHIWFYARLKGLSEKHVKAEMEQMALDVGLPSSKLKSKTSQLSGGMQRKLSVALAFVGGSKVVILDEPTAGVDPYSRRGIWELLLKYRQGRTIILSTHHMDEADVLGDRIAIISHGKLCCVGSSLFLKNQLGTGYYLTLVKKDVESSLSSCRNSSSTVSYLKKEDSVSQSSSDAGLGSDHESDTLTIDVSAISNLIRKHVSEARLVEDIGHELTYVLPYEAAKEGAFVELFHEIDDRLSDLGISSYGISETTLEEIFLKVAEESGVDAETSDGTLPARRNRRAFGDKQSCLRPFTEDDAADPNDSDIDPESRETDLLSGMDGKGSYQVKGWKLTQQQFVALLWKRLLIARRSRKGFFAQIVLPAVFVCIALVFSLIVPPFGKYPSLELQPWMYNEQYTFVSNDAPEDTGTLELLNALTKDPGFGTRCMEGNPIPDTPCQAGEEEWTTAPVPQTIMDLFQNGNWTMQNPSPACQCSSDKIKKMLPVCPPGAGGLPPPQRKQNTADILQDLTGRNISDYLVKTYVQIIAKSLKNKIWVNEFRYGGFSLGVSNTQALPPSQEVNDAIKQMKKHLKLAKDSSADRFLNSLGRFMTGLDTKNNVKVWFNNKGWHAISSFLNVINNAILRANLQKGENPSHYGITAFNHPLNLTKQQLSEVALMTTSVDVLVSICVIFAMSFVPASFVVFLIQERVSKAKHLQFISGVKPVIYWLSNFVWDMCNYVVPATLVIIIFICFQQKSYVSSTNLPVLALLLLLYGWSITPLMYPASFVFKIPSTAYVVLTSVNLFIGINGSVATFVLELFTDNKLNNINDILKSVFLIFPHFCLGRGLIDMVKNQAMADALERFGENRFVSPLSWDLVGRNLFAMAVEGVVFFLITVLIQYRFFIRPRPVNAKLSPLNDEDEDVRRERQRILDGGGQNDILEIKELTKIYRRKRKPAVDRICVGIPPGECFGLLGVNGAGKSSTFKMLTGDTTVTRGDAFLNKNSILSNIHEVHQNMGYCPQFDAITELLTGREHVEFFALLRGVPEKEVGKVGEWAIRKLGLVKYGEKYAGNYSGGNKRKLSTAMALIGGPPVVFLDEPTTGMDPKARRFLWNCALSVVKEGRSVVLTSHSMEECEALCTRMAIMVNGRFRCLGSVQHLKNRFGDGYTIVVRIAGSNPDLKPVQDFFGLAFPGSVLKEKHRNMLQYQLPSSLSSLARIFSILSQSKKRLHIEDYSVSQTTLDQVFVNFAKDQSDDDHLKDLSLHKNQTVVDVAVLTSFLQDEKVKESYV

EC50 [1] | EC50 [2] | Compound | other results
0.95 µM | – | CCOC(=O)c1cccc(NC(=O)c2sc(Cl)cc2S(=O)(=O)N(C)c2ccc(OCC)c(OC)c2)c1 | –
– | > 25 µM | CCOc1ccc(N(C)S(=O)(=O)c2ccsc2C(=O)Nc2cccc(C(=O)OC)c2)cc1 | –
– | 11 µM | CCCOc1ccc(N(C)S(=O)(=O)c2ccsc2C(=O)Nc2cccc(C(=O)OCC)c2)cc1 | –
4.8 µM | 13 µM | CCOC(=O)c1cccc(NC(=O)c2sc(Cl)cc2S(=O)(=O)N(C)c2ccc(OCC)cc2)c1 | –
3.5 µM | 4.5 µM | CCOC(=O)c1cccc(NC(=O)c2sccc2S(=O)(=O)N(C)c2ccc(OCC)c(OCC)c2)c1 | –
11 µM | – | CCOC(=O)c1cccc(NC(=O)c2sc(Cl)cc2S(=O)(=O)N(C)c2ccc(N(C)C)cc2)c1 | –

The next lines start with the molecule.

Compound | EC50 [1] | EC50 [2] | other results
CCOc1ccc(N(C)S(=O)(=O)c2cc(Cl)sc2C(=O)Nc2cccc(C(=O)OCCOCCOC)c2)cc1OCC | > 25 µM | – | –
CN(CC(=O)Nc1ccc(F)c(F)c1F)C(=O)c1ccc2c(c1)OCCO2 | – | – | EC50 [3]: > 1 µM
CCOC(=O)c1cccc(-c2nnc(-c3sc(Cl)cc3S(=O)(=O)N(C)c3ccc(OCC)c(OC)c3)o2)c1 | > 25 µM | – | –
CCOc1ccc(N(C)S(=O)(=O)c2cc(Cl)sc2C(=O)Nc2cc(Cl)cc(C(=O)OCCOC)c2)cc1OC | – | 0.58 µM | –
CCOc1ccc(N(C)S(=O)(=O)c2cc(Cl)sc2C(=O)Nc2cc(Cl)cc(C3OCCO3)c2)cc1OC | 15 µM | 13 µM | –
O=C(O)Cc1cccc(OCCCN(Cc2cccc(C(F)(F)F)c2Cl)CC(c2ccccc2)c2ccccc2)c1 | – | – | Activity [4]: Toxic
CCOc1ccc(N(C)S(=O)(=O)c2cc(Cl)sc2C(=O)Nc2cc(Cl)cc(C(=O)OCCOCCOC)c2)cc1OC | 1 µM | – | –
O=S(=O)(c1ccccc1)N(CC(F)(F)F)c1ccc(C(O)(C(F)(F)F)C(F)(F)F)cc1 | – | – | Activity (HepG2): Active; Activity [5]: Active; Emax [6]: 35%
CCOc1ccc(N(C)S(=O)(=O)c2cc(Cl)sc2C(=O)Nc2cccc(C(=O)OCCOC)c2)cc1OCC | – | 15 µM | –
